From the Kinase Knowledgebase extract (Sharma et al. 2016) come the findings set out here.

A value given as a limit tells only on which side of the number the result lay.

In the experiment the target is PIK3CG (human) (UniProt P48736). In words: Inhibition of PIK3CG Kinase Activity.
PIK3CG (human), sequence (P48736 whole entry, looked up): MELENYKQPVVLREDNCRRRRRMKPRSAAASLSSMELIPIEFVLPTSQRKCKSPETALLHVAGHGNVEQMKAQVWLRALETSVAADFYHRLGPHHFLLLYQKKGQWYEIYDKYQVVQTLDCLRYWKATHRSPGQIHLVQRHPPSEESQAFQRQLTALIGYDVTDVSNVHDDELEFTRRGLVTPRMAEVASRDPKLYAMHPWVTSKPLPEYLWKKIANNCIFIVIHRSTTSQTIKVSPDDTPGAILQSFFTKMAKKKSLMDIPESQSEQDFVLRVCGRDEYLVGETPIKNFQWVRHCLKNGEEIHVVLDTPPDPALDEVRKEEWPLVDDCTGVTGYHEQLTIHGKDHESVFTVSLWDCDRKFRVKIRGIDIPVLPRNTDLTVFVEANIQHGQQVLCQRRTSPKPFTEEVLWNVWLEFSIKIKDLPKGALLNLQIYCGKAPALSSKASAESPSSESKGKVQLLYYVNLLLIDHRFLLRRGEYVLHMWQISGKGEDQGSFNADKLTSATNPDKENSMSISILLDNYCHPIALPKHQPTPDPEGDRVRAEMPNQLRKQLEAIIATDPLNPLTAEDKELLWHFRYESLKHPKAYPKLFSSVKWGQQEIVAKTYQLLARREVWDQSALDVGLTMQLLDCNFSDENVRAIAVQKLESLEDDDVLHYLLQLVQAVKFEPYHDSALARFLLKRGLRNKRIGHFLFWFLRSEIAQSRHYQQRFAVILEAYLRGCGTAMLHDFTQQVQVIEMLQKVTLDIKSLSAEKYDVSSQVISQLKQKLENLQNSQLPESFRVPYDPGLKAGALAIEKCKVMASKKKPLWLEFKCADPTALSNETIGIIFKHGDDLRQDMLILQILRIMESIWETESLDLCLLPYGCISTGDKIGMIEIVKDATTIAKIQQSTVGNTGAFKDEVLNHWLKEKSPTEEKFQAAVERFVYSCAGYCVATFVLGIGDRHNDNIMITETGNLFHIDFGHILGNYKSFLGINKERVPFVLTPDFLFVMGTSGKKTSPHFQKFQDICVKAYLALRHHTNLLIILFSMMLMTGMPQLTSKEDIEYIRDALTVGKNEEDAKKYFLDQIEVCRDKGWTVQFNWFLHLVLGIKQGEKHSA
A word on the Ki: it is the dissociation constant of the complex between target and ligand, obtained from inhibition or displacement. A higher Ki goes with lower affinity. Take `CC[C@@]1(OC)c2nc(-c3cnc(OC)c(OC)c3)cc(C)c2C(=O)N1c1cnn(CC(F)(F)F)c1`: the Ki was below 100 nM.

`CCn1ccc(N2C(=O)c3c(C)cc(-c4cncc(OC)c4)nc3C2C)n1` (centres undefined) registered a Ki below 100 nM.

`COc1cc(-c2ccc3c(c2)CN(c2cn(C)nn2)C3=O)cnc1OC` yielded a Ki below 100 nM.

With `COc1cc(-c2cc(C)c3c(n2)CN(c2csc(C)c2)C3=O)cnc1OC`, the Ki was below 100 nM.

`COc1cncc(-c2cc(C)c3c(n2)C2(COC2)N(c2cnn(CC(F)(F)F)c2)C3=O)c1` came in with an inhibition constant Ki below 100 nM.

Take `COCCOc1ncc(-c2cc(C)c3c(n2)[C@@H](C)N(c2ccn(C)n2)C3=O)cc1OC`: the Ki is below 100 nM.

Molecule `CCOc1cncc(-c2cc(C)c3c(n2)C(C)(C)N(c2cnn(COCCOC)c2)C3=O)c1` yielded a Ki of 100 to 490 nM.

In turn, `CCn1ccc(N2Cc3nc(-c4cnc(OC)c(OCC(F)(F)F)c4)cc(C)c3C2=O)n1` came in with a Ki below 100 nM.

`COc1cncc(-c2cc(C)c3c(n2)C(C)N(c2cnn(CC(F)(F)F)c2)C3=O)c1` (centres undefined) returned an inhibition constant Ki below 100 nM.

In turn, `COCCn1cc(N2Cc3cc(-c4cnc(OC)c(OC)c4)ccc3C2=O)cn1` registered a Ki of 100 to 490 nM.

Turning to `COc1cncc(-c2cc(C)c3c(n2)CN(c2cn(CC(F)(F)F)cn2)C3=O)c1`, the Ki was below 100 nM.

As to `CCOc1ncc(-c2cc(C)c3c(n2)C(O)N(c2cnn(CC(F)(F)F)c2)C3=O)cc1OC` (centres undefined), the inhibition constant Ki is below 100 nM.

`Cc1cc(-c2cncc(OC(F)F)c2)nc2c1C(=O)N(c1cnn(C)c1)C2C` (centres undefined) gave an inhibition constant Ki below 100 nM.

`COc1cc(OC)cc(-c2cc(C)c3c(n2)[C@@H](C)N(c2cnn(CC(F)(F)F)c2)C3=O)c1` came in with an inhibition constant (Ki) below 100 nM.

In turn, `COc1cc(-c2ccc3c(n2)CN(c2cnn(Cc4ccncc4)c2)C3=O)cnc1OC` gave an inhibition constant Ki below 100 nM.

On to `CCn1cc(N2Cc3nc(-c4cncc(OCC(F)(F)F)c4)cc(C)c3C2=O)cn1`, for which the inhibition constant Ki is below 100 nM.

With `COc1cc(-c2ccc3c(n2)CN(c2cnn(C(C)(C)C#N)c2)C3=O)cnc1OC`, the Ki was below 100 nM.

Consider `COc1cc(-c2ccc3c(n2)CN(c2cnn(CCn4cncn4)c2)C3=O)cnc1OC`, for which the inhibitory constant (Ki) is below 100 nM.

On to `COc1cc(-c2ccc3c(n2)C2(CC2)N(c2cnn(CC(F)(F)F)c2)C3=O)cnc1OC`, for which the Ki was below 100 nM.
